According to PubChem BioAssay (NCI):
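48-hour exposure; five concentrations; linearly interpolated endpoints. GI50 is the concentration that inhibits growth by half. TGI marks complete inhibition of growth.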

Assays:
Test in all cases: DTP human tumour cell line panel, 48 h
SF-539 CNS = tested on: SF-539 CNS
NCI-H460 lung = tested on: NCI-H460 lung
UO-31 renal = tested on: UO-31 renal
HL-60(TB) leukemia = tested on: HL-60(TB) leukemia
HCT-116 colon = tested on: HCT-116 colon
CAKI-1 renal = tested on: CAKI-1 renal
OVCAR-5 ovarian = tested on: OVCAR-5 ovarian
SR leukemia = tested on: SR leukemia
EKVX NSCLC = tested on: EKVX NSCLC
NCI-H226 lung = tested on: NCI-H226 lung
DU-145 prostate = tested on: DU-145 prostate
T-47D breast = tested on: T-47D breast
SK-MEL-2 melanoma = tested on: SK-MEL-2 melanoma
TK-10 renal = tested on: TK-10 renal
OVCAR-8 ovarian = tested on: OVCAR-8 ovarian
OVCAR-4 ovarian = tested on: OVCAR-4 ovarian
M14 melanoma = tested on: M14 melanoma
HOP-92 NSCLC = tested on: HOP-92 NSCLC
UACC-62 melanoma = tested on: UACC-62 melanoma
IGROV1 ovarian = tested on: IGROV1 ovarian
NCI-H522 lung = tested on: NCI-H522 lung
HT29 colon = tested on: HT29 colon
MOLT-4 leukemia = tested on: MOLT-4 leukemia
HOP-62 NSCLC = tested on: HOP-62 NSCLC
LOX IMVI melanoma = tested on: LOX IMVI melanoma
SK-MEL-5 melanoma = tested on: SK-MEL-5 melanoma
RPMI-8226 leukemia = tested on: RPMI-8226 leukemia
MALME-3M melanoma = tested on: MALME-3M melanoma
UACC-257 melanoma = tested on: UACC-257 melanoma
A549 NSCLC = tested on: A549 NSCLC
BT-549 breast = tested on: BT-549 breast
SN12C renal = tested on: SN12C renal
PC-3 prostate = tested on: PC-3 prostate
SNB-75 CNS = tested on: SNB-75 CNS
786-0 renal = tested on: 786-0 renal
NCI-H23 lung = tested on: NCI-H23 lung
NCI/ADR-RES ovarian = tested on: NCI/ADR-RES ovarian
SK-OV-3 ovarian = tested on: SK-OV-3 ovarian
MDA-MB-435 = tested on: MDA-MB-435
COLO 205 colon = tested on: COLO 205 colon
HCT-15 colon = tested on: HCT-15 colon
K-562 leukemia = tested on: K-562 leukemia
SF-295 CNS = tested on: SF-295 CNS
U251 CNS = tested on: U251 CNS
SNB-19 CNS = tested on: SNB-19 CNS
CCRF-CEM leukemia = tested on: CCRF-CEM leukemia
MCF7 breast = tested on: MCF7 breast
MDA-MB-231 breast = tested on: MDA-MB-231 breast
SW-620 colon = tested on: SW-620 colon
OVCAR-3 ovarian = tested on: OVCAR-3 ovarian
A498 renal = tested on: A498 renal

In the case of `O=C1Nc2ccccc2/C1=C/C(=O)c1ccc(N2CCCC2)cc1`, the GI50 (SF-539 CNS) is reported as 2.11 µM, the TGI (SF-539 CNS) is reported as 4.75 µM and the GI50 (NCI-H460 lung) is reported as 2.86 µM. The TGI (NCI-H460 lung) was 8.17 µM, the GI50 (UO-31 renal) was 2.14 µM and the TGI (UO-31 renal) was over 100 µM. For the same compound, the GI50 (HL-60(TB) leukemia) was 1.24 µM, the TGI (HL-60(TB) leukemia) was 4.56 µM and the GI50 (HCT-116 colon) was 1.56 µM. It also gave a TGI (HCT-116 colon) of 4.24 µM, a GI50 (CAKI-1 renal) of 1.2 µM and a TGI (CAKI-1 renal) of over 100 µM. It also gave a GI50 (OVCAR-5 ovarian) of 4.54 µM, a TGI (OVCAR-5 ovarian) of over 100 µM and a GI50 (SR leukemia) of 0.327 µM. The TGI (SR leukemia) was 4.42 µM, the GI50 (EKVX NSCLC) was 6.09 µM and the TGI (EKVX NSCLC) was over 100 µM. For the same compound, the GI50 (NCI-H226 lung) was 4.35 µM, the TGI (NCI-H226 lung) was over 100 µM and the GI50 (DU-145 prostate) was 3.2 µM. For the same compound, the TGI (DU-145 prostate) was over 100 µM, the GI50 (T-47D breast) was 2.12 µM and the TGI (T-47D breast) was 6.38 µM. It also gave a GI50 (SK-MEL-2 melanoma) of 3.87 µM, a TGI (SK-MEL-2 melanoma) of over 100 µM and a GI50 (TK-10 renal) of 3.24 µM. It also gave a TGI (TK-10 renal) of over 100 µM, a GI50 (OVCAR-8 ovarian) of 1.62 µM and a TGI (OVCAR-8 ovarian) of 4.5 µM. It also gave a GI50 (OVCAR-4 ovarian) of 3.1 µM, a TGI (OVCAR-4 ovarian) of over 100 µM and a GI50 (M14 melanoma) of 2.28 µM. It also gave a TGI (M14 melanoma) of 22.3 µM, a GI50 (HOP-92 NSCLC) of 1.75 µM and a TGI (HOP-92 NSCLC) of 7.11 µM. For the same compound, the GI50 (UACC-62 melanoma) was 2.78 µM, the TGI (UACC-62 melanoma) was 9.81 µM and the GI50 (IGROV1 ovarian) was 1.71 µM. It also gave a TGI (IGROV1 ovarian) of 9.07 µM, a GI50 (NCI-H522 lung) of 2.28 µM and a TGI (NCI-H522 lung) of over 100 µM. The GI50 (HT29 colon) was 1.2 µM, the GI50 (MOLT-4 leukemia) was 2.02 µM and the GI50 (HOP-62 NSCLC) was 2.47 µM. The TGI (HOP-62 NSCLC) was over 100 µM, the GI50 (LOX IMVI melanoma) was 1.73 µM and the TGI (LOX IMVI melanoma) was 3.56 µM. The GI50 (SK-MEL-5 melanoma) was 2.96 µM, the TGI (SK-MEL-5 melanoma) was over 100 µM and the GI50 (RPMI-8226 leukemia) was 1.98 µM. It also gave a TGI (RPMI-8226 leukemia) of 5.31 µM, a GI50 (MALME-3M melanoma) of 2.84 µM and a TGI (MALME-3M melanoma) of over 100 µM. It also gave a GI50 (UACC-257 melanoma) of 4.3 µM, a TGI (UACC-257 melanoma) of over 100 µM and a GI50 (A549 NSCLC) of 3.34 µM. For the same compound, the TGI (A549 NSCLC) was over 100 µM, the GI50 (BT-549 breast) was 3.27 µM and the TGI (BT-549 breast) was over 100 µM. It also gave a GI50 (SN12C renal) of 3.26 µM, a TGI (SN12C renal) of over 100 µM and a GI50 (PC-3 prostate) of 1.77 µM. It also gave a TGI (PC-3 prostate) of 8.04 µM, a GI50 (SNB-75 CNS) of 2.05 µM and a TGI (SNB-75 CNS) of 6.91 µM. The GI50 (786-0 renal) was 2.84 µM, the TGI (786-0 renal) was over 100 µM and the GI50 (NCI-H23 lung) was 5.2 µM. The TGI (NCI-H23 lung) was over 100 µM, the GI50 (NCI/ADR-RES ovarian) was 2.15 µM and the TGI (NCI/ADR-RES ovarian) was 6.5 µM. For the same compound, the GI50 (SK-OV-3 ovarian) was 3.4 µM, the TGI (SK-OV-3 ovarian) was over 100 µM and the GI50 (MDA-MB-435) was 1.25 µM. The TGI (MDA-MB-435) was over 100 µM, the GI50 (COLO 205 colon) was 1.67 µM and the TGI (COLO 205 colon) was 4.96 µM. It also gave a GI50 (HCT-15 colon) of 0.686 µM, a TGI (HCT-15 colon) of 9.7 µM and a GI50 (K-562 leukemia) of 0.833 µM. The TGI (K-562 leukemia) was over 100 µM, the GI50 (SF-295 CNS) was 3.96 µM and the TGI (SF-295 CNS) was over 100 µM. It also gave a GI50 (U251 CNS) of 2.89 µM, a TGI (U251 CNS) of over 100 µM and a GI50 (SNB-19 CNS) of 3.8 µM. It also gave a TGI (SNB-19 CNS) of over 100 µM, a GI50 (CCRF-CEM leukemia) of 2 µM and a TGI (CCRF-CEM leukemia) of over 100 µM. The GI50 (MCF7 breast) was 2.05 µM, the TGI (MCF7 breast) was over 100 µM and the GI50 (MDA-MB-231 breast) was 3.73 µM. It also gave a TGI (MDA-MB-231 breast) of over 100 µM, a GI50 (SW-620 colon) of 0.339 µM and a TGI (SW-620 colon) of 3.01 µM. It also gave a GI50 (OVCAR-3 ovarian) of 1.79 µM, a TGI (OVCAR-3 ovarian) of 4.83 µM and a GI50 (A498 renal) of 3.45 µM. It also gave a TGI (A498 renal) of over 100 µM.
